Source: US11059795B2, “Androgen receptor modulators and methods for their use” (ESSA Pharma, Inc., priority 2018, dated 2021)

What was measured:
androgen receptor (AR) = target: T1, androgen receptor (AR) (Homo sapiens, UniProt P10275, T878A); experiment: Androgen-induced PSA (6.1 kb)-luciferase reporter assay in LNCaP cells; type: cell-based; details: LNCaP cells transfected with PSA (6.1 kb)-luciferase reporter, R1881 1 nM, 24 h; read-out: PSA-Luc IC50 Range
T1 construct: LNCaP cells were transiently transfected with the PSA (6.1 kb)-luciferase reporter for 24 h; endogenous in cells; host or cells: LNCaP
T1 sequence (P10275 1-920 T878A): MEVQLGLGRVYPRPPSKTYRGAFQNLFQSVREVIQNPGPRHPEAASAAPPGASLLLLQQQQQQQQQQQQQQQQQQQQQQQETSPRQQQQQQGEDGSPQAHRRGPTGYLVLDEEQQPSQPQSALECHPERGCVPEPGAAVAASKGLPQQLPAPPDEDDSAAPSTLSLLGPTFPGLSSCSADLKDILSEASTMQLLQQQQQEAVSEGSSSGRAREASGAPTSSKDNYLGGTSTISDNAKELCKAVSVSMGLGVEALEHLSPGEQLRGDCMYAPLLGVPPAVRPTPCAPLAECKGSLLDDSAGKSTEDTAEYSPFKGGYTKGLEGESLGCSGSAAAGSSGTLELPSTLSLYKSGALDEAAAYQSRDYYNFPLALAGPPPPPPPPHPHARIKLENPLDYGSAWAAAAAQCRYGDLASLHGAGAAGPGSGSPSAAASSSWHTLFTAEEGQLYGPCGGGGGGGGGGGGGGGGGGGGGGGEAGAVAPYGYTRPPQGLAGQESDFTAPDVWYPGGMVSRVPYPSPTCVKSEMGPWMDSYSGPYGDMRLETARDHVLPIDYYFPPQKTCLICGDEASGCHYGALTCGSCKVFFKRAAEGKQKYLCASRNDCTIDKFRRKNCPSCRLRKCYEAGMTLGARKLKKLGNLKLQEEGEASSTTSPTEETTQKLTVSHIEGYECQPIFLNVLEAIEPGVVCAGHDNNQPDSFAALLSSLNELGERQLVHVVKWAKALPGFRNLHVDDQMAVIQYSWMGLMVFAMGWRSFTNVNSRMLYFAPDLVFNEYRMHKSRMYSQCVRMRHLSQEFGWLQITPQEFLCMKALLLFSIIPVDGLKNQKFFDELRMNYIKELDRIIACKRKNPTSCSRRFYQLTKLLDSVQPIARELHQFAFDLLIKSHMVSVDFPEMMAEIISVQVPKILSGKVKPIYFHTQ
Method in brief: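 Read-out is firefly luminescence (10 s) in LNCaP lysates, normalized to protein, from an ARE-containing PSA (6.1 kb)-luciferase reporter driven by androgen.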

[1] = Microsomal stability assay, mouse liver microsomes; type: in vitro ADME; details: 1 μM compound, 0.5 mg/mL protein, 37° C.; for microsomal CLint at 1 μM: mouse, liver microsomes, pH 7.4, mouse liver microsomes, read-out: MLM +30/− NADPH: Clint (μL/min/mg protein)
Method in brief: (§1)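 Compound at 1 μM was incubated at 37° C with 0.5 mg/mL liver microsomes and 1 mM NADPH and/or 1 mM UDPGA (with alamethicin) in 100 mM potassium phosphate pH 7.4, 3 mM MgCl2. Samples were taken at 0, 15, 30 and 60 min and measured by LC/MS/MS. t½ came from compound loss relative to 0 min, and Clint was scaled with 45 mg microsomal protein/g liver.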

[2] = Microsomal stability assay, human liver microsomes; type: in vitro ADME; details: 0.5 mg/mL protein, 37° C.; for microsomal CLint at 1 μM: pH 7.4, 1 μM compound, read-out: HLM +/− NADPH: Clint (μL/min/mg protein)
Method in brief: as §1

[3] = Hepatocyte stability assay, mouse hepatocytes; type: in vitro ADME; details: 1 μM compound, 0.5 million cells/mL, 37° C.; for hepatocyte CLint at 1 μM: mouse, cryopreserved hepatocytes, read-out: MH +/− NADPH: Clint (μL/min/million cells)
Method in brief: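 Cryopreserved rat, human or mouse hepatocytes at 0.5 million cells/mL in DMEM with 1 μM compound, 37° C, sampled at 0, 60, 120 and 180 min and quenched with acetonitrile/formic acid. Parent loss vs 0-min by LC/MS/MS gave t½, and Clint = 0.693/t½ × mL incubation/million cells.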

SMILES | IC50 (androgen receptor (AR)) [µM] | microsomal CLint at 1 μM [1] [µL/min/mg] | microsomal CLint at 1 μM [2] [µL/min/mg] | hepatocyte CLint at 1 μM [3] [µL/min/1e6 cells] | MLM +30/− NADPH: Clint (μL/min/mg protein) ([1]; mouse liver microsomes) | HLM +/− NADPH: Clint (μL/min/mg protein) ([2]; 1 μM compound) | MH +/− NADPH: Clint (μL/min/million cells) [3]
Cc1cc(C(C)(C)c2ccc(OCc3csc(S(C)(=O)=O)n3)cc2)cc(C#N)c1OCCCl [Compound A86] | < 0.5 | 12 to 48 | 12 to 48 | ≥ 18 | – | – | –
CC(C)(c1ccc(OCc2csc(NS(C)(=O)=O)n2)cc1)c1cc(Cl)c(OCCCl)c(C#N)c1 [Compound A134, N-(4-((4-(2-(3-chloro-4-(2-chloroethoxy)-5-cyanophenyl)propan-2-yl)phenoxy)methyl)thiazol-2-yl)methanesulfonamide] | 0.5 to 2 | < 12 | 12 to 48 | < 4 | – | – | –
CC(C)(c1ccc(OCc2cncnc2NS(C)(=O)=O)cc1)c1cc(Cl)c(OCCCl)c(C#N)c1 [Compound A148] | 0.5 to 2 | < 12 | ≥ 48 | < 4 | – | – | –
CC(=O)NN1C(=O)N(c2ccc(C(C)(C)c3cc(Cl)c(OCCCl)c(Cl)c3)cc2)C(=O)C1(C)C [Compound B5] | 0.5 to 2 | < 12 | < 12 | 4 to 18 | – | – | –
CC(C)(c1ccc(OCc2cc(NS(C)(=O)=O)ccn2)cc1)c1cc(Cl)c(OCCCl)c(C#N)c1 [Compound A196] | 0.5 to 2 | < 12 | 12 to 48 | < 4 | – | – | –
CC(=O)Nc1nc(COc2ccc(C(C)(C)c3cc(Cl)c(OCCCl)c(C#N)c3)cc2)co1 [Compound A140] | < 0.5 | ≥ 48 | ≥ 48 | ≥ 18 | – | – | –
CC(Oc1ccc(C(C)(C)c2cc(Cl)c(OCCCl)c(Cl)c2)cc1)c1[nH]cnc1S(C)(=O)=O (centres unmarked) [Compound A116] | 0.5 to 2 | 12 to 48 | 12 to 48 | 4 to 18 | – | – | –
CC(C)(c1ccc(OCc2cnc(S(C)(=O)=O)s2)cc1)c1cc(Cl)c(OCCCl)c(C#N)c1 [Compound A149] | < 0.5 | < 12 | < 12 | ≥ 18 | – | – | –
CC(Oc1ccc(C(C)(O)c2cc(Cl)c(OCCCl)c(C#N)c2)cc1)c1ocnc1S(C)(=O)=O (centres unmarked) [Compound A95] | > 2 | ≥ 48 | 12 to 48 | ≥ 18 | – | – | –
CC(C)(c1ccc(OCc2nccnc2NS(C)(=O)=O)cc1)c1cc(Cl)c(OCCCl)c(C#N)c1 [Compound A104] | < 0.5 | – | – | – | * (* represents Cl in the range of ≥48 μL/min/mg protein) | ** (** represents Cl in the range of 12-48 μL/min/mg protein) | * (* represents Cl in the range of ≥18 μL/min/million cells)
CC(C)(c1ccc(OCc2ocnc2S(C)(=O)=O)cc1)c1cc(Cl)c(OCC(O)CCl)c(Cl)c1 (centres unmarked) [Compound A117] | 0.5 to 2 | 12 to 48 | 12 to 48 | ≥ 18 | – | – | –
CC(C)(c1ccc(OCc2ccnnc2NS(C)(=O)=O)cc1)c1cc(Cl)c(OCCCl)c(C#N)c1 [Compound A102] | < 0.5 | < 12 | 12 to 48 | < 4 | – | – | –
CC(C)(c1ccc(OCc2ccnc(NS(C)(=O)=O)c2)cc1)c1cc(Cl)c(OCCCl)c(C#N)c1 [Compound A195] | < 0.5 | < 12 | < 12 | 4 to 18 | – | – | –
COC(=O)Nc1nc(COc2ccc(C(C)(C)c3cc(Cl)c(OCCCl)c(C#N)c3)cc2)co1 [Compound A156] | < 0.5 | 12 to 48 | 12 to 48 | ≥ 18 | – | – | –
CC(C)(c1ccc(OCc2ccnc(C#N)n2)cc1)c1cc(Cl)c(OCCCl)c(C#N)c1 [Compound A200] | 0.5 to 2 | < 12 | < 12 | 4 to 18 | – | – | –
CSc1nc(COc2ccc(C(C)(C)c3cc(Cl)c(OCCCl)c(C#N)c3)cc2)c(C)o1 [Compound A118] | 0.5 to 2 | ≥ 48 | ≥ 48 | 4 to 18 | – | – | –
CC(C)(c1ccc(OCc2nc(C(N)=O)cs2)cc1)c1cc(Cl)c(OCCCl)c(C#N)c1 [Compound A171, 2-((4-(2-(3-chloro-4-(2-chloroethoxy)-5-cyanophenyl)propan-2-yl)phenoxy)methyl)thiazole-4-carboxamide] | 0.5 to 2 | < 12 | < 12 | 4 to 18 | – | – | –
CC(N)(c1ccc(OCc2ocnc2S(C)(=O)=O)cc1)c1cc(Cl)c(OCCCl)c(C#N)c1 (centres unmarked) [Compound A105] | > 2 | ≥ 48 | 12 to 48 | ≥ 18 | – | – | –
CC(C)(c1ccc(NC(=O)c2coc(S(C)(=O)=O)n2)cc1)c1cc(Cl)c(OCCCl)c(C#N)c1 [Compound A96] | > 2 | ≥ 48 | ≥ 48 | ≥ 18 | – | – | –
CC(C)(c1ccc(OCc2ccnc(N3CCCCS3(=O)=O)n2)cc1)c1cc(Cl)c(OCCCl)c(C#N)c1 [Compound A198] | < 0.5 | 12 to 48 | < 12 | 4 to 18 | – | – | –
CC(Oc1ccc(C(C)(C)c2cc(Cl)c(OCCCl)c(C#N)c2)cc1)c1coc(NS(C)(=O)=O)n1 (centres unmarked) [Compound A91] | 0.5 to 2 | < 12 | < 12 | 4 to 18 | – | – | –
Cc1nc(COc2ccc(C(C)(C)c3cc(Cl)c(OCCCl)c(C#N)c3)cc2)cc(NS(C)(=O)=O)n1 [Compound A99] | 0.5 to 2 | 12 to 48 | < 12 | 4 to 18 | – | – | –
CC(C)(c1ccc(OCc2cnc(C#N)o2)cc1)c1cc(Cl)c(OCCCl)c(C#N)c1 [Compound A113] | > 2 | 12 to 48 | 12 to 48 | ≥ 18 | – | – | –
